Consider 5 compounds from publication PMC6107548, “Identification and characterization of aspartyl-tRNA synthetase inhibitors against Mycobacterium tuberculosis by an integrated whole-cell target-based approach” (Scientific Reports, 2018).

pIC50: −log10 of the molar value. Values after ≈ are worked out from the molar mass of the structure shown. Where two headings read alike, the source gives them in different places.

For series [1], the target named is T1, Mt-AspRS (Mycobacterium tuberculosis, UniProt P9WFW3). Kind of series: tRNA-independent ATP release assay (coupled enzymes, NADPH fluorescence). The series is classed as biochemical. Also on record: made in house. The conditions noted are these: Table S2, 0.5 μM enzyme, 2 mM ADPCP, mean of two replicates.
T1 sequence (P9WFW3 whole entry): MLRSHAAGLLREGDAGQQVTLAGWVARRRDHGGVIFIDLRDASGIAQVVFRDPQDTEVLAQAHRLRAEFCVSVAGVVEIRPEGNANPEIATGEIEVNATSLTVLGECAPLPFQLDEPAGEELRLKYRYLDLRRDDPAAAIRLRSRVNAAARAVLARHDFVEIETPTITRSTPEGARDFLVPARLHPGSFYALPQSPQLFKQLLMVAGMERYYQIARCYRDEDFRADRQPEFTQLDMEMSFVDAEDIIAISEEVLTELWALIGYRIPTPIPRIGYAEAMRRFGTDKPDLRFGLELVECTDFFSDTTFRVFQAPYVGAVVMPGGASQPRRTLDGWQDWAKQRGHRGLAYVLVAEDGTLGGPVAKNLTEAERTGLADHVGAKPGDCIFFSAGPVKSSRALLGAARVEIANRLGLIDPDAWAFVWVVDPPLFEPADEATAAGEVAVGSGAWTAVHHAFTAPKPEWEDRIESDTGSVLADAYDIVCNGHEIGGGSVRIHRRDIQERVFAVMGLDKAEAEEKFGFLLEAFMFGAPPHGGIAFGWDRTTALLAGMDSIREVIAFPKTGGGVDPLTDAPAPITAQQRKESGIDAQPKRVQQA
Another series deals with HepG2. The experiment in a line: HepG2 cytotoxicity. The series is classed as cell-based. The conditions noted are these: Homo sapiens, Table S2.
A further series has as its system M.tb H37Rv (intra). Kind of series: MIC against intracellular M.tb H37Rv. It is filed as cell-based. The conditions noted are these: Mycobacterium tuberculosis, Table S2.
In a further series the test system is M.tuberculosis H37Rv. Kind of series: MIC against M. tuberculosis H37Rv (extracellular). The series is classed as cell-based. The settings on record: Mycobacterium tuberculosis.
In series [2] the test system is M.bovis BCG pMV261::Mt-AspRS. Kind of series: microbe, parasite or virus in culture. It is filed as cell-based, Mycobacterium bovis BCG. The settings on record: for MIC: Mycobacterium tuberculosis variant bovis BCG, BCG.
The next series deals with M.bovis BCG empty pMV261. The experiment in a line: microbe, parasite or virus in culture. The series is classed as cell-based. The conditions noted are these: Mycobacterium tuberculosis variant bovis BCG.
For series [3], the target named is T1, Mt-AspRS. Kind of series: biochemical.
Series [4] has as its target T1, Mt-AspRS. Kind of series: Mechanistic characterization, competition with ADPCP in tRNA-independent reaction. The series is classed as biochemical. Also on record: made in house. The settings on record: ADPCP 0-4000 μM; inhibitor 50 and 100 μM.
For another series, the system named is N[C@@H](CC(=O)O)C(=O)O. Kind of series: purified protein, by the assay type. The conditions noted are these: pH 7.7; 37.0 °C.
Setting [5] is: Table S2, extracellular, read-out: MIC M.tb H37Rv (extra).
Setting [6] is: read-out: MIC M. bovis BCG pMV261::AspRS.
Setting [7] is: read-out: MIC M.bovis BCG pMV261::Mt-AspRS.
Setting [8] is: read-out: MIC M. bovis empty pMV261 BCG.
Setting [9] is: read-out: MIC M.bovis BCG empty pMV261.
Setting [10] is: Table S1, read-out: MIC M.tuberculosis H37Rv.

The pIC50 is the negative decadic logarithm of the IC50, by convention in mol/L. A high value points to a small IC50. Consider `N#Cc1ccc(COc2ccc3c(c2)CCN(C(=O)/C=C/c2ccc(Nc4ccc(F)cn4)cc2)C3)cc1` [GSK85A], for which the pIC50 is 5.47 at Mt-AspRS [1] and 4.60 in the series with HepG2. Moreover, the MIC was more than 50.1 µM against M.tb H37Rv (intra) and 2.5 µM (≈ 1.26 µg/mL) in the series on M.tuberculosis H37Rv (setting [5]).

For the compound `Nc1ccc(/C=C/C(=O)N2CCC(COc3cccnc3)CC2)cn1` [GSK92A], the pIC50 on Mt-AspRS [1] was 4.67; in the series with HepG2, less than 4.00. For the same compound, the MIC in the series with M.tb H37Rv (intra) was more than 50.1 µM; with M.tuberculosis H37Rv (setting [5]), more than 80 µM.

For the compound `O=C(O)c1ccc(Nc2nc(-c3cccs3)cs2)cc1O` [GSK93A], in series [2], the “Ratio (MIC shift)” value is recorded as 4.3. In addition, the MIC in series [2] (setting [6]) was 1.7 µM (≈ 0.541 µg/mL); in series [2] (setting [7]), 1.7 µM (≈ 0.541 µg/mL); with M.bovis BCG empty pMV261 (setting [8]), 0.4 µM (≈ 0.127 µg/mL); in the series with M.bovis BCG empty pMV261 (setting [9]) it was 0.4 µM (≈ 0.127 µg/mL); with M.tb H37Rv (intra) it was more than 50.1 µM; in the series with M.tuberculosis H37Rv (setting [10]), 31.2 µM (≈ 9.95 µg/mL). Also, the MIC in the series with M.tuberculosis H37Rv (setting [5]) stood at 31.2 µM (≈ 9.95 µg/mL). Further, the pIC50 is 4.45 against Mt-AspRS [3] and less than 4.00 with HepG2. Besides, the “mode of inhibition with regard to ADPCP” value at Mt-AspRS [4] is “Reversible and non-competitive”.

Consider `O=C1OC2(CCC(CNc3ccc(-c4cc(F)cc(F)c4)nn3)CC2)CN1c1cccnn1` (stereo not shown) [GSK97C], for which the “Ratio (MIC shift)” value in series [2] was 2.4. Further, the MIC amounted to 24.9 µM (≈ 11.3 µg/mL) in series [2] (setting [6]); 24.9 µM (≈ 11.3 µg/mL) in series [2] (setting [7]); 10.5 µM (≈ 4.75 µg/mL) in the series with M.bovis BCG empty pMV261 (setting [8]); 10.5 µM (≈ 4.75 µg/mL) in the series on M.bovis BCG empty pMV261 (setting [9]); 3.16 µM (≈ 1.43 µg/mL) against M.tb H37Rv (intra); 20 µM (≈ 9.05 µg/mL) in the series with M.tuberculosis H37Rv (setting [10]). Moreover, the MIC with M.tuberculosis H37Rv (setting [5]) came to 20 µM (≈ 9.05 µg/mL). For the same compound, the pIC50 against Mt-AspRS [3] is 5.95; with HepG2, 4.40. At Mt-AspRS [4], the “mode of inhibition with regard to ADPCP” value is “Reversible and non-competitive”.

A word on the Km: it is the concentration of substrate that gives half-maximal velocity. With “Mt-AspRS (Mycobacterium tuberculosis H37Rv)”, the Km with N[C@@H](CC(=O)O)C(=O)O was found to be 13.8 ± 9.6 µM.
